Patent US7638509B2, “Diene compounds and formulations” (priority 2003, dated 2009)

Assays:
LNCaP cells = test: LNCaP cell growth, cell count by hemocytometer; format: cell-based, human
Description: The mean±SD of three separate experiments was determined. […] Total cell number was counted by hemocytometer. The mean of at least three determinations was determined.

AR = target: T1, AR (Homo sapiens, UniProt P10275, T878A); test: Competitive [3H]-R1881 ligand binding assay, LNCaP whole cell extracts; settings: 1 nM [3H]-R1881, unlabeled ligand 1-10,000 nM, relative to DHT
T1 construct: LNCaP without transfection; endogenous in cells; host or cells: LNCaP
T1 sequence (P10275 1-920 T878A): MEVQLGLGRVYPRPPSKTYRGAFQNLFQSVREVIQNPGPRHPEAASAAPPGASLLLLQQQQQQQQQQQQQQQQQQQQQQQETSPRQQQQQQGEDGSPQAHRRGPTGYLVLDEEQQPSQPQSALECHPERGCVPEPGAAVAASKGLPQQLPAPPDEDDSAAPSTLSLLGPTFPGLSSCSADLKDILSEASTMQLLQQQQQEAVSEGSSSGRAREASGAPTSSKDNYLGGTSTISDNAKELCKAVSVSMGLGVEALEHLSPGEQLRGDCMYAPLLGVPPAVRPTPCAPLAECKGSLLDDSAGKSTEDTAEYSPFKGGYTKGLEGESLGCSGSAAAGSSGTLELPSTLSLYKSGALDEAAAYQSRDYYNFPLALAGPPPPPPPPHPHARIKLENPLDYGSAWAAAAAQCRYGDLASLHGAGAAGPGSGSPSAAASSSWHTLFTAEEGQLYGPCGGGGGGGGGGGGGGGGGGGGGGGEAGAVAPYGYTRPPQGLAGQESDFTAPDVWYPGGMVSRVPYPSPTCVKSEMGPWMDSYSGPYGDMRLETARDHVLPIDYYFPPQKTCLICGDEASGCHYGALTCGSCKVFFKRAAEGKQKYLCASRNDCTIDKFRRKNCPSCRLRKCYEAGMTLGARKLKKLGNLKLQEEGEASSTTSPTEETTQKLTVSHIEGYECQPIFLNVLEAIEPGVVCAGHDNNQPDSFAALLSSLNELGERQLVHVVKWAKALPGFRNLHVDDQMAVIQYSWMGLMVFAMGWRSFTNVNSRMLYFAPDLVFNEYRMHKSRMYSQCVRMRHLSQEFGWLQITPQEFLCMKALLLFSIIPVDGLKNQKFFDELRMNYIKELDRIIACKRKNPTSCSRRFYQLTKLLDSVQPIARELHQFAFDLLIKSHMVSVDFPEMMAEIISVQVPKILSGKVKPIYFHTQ
Description: Ligand Binding Assay. Whole cell extracts from COS-1 with transient transfection of pSG5-AR, or LNCaP without transfection, were incubated for 2 h at 37° C. with 1 nM [^3H]-synthetic androgen methyltrienolone (R1881) in the presence and absence of increasing concentrations (1-10,000 nM) of unlabeled ligands. Then, hydroxyapatite (Bio-Rad) was added and stirred for 15 min at 4° C. After centrifugation and washing, radioactivity was determined by scintillation counting.
Clinically available antiandrogens have an affinity for the AR, allowing a competition with androgens for binding. To determine whether ADEK has this common feature of AR antagonists, the competitive androgen binding assay was performed.

[1] = target: T2, progesterone receptor (PR) (Homo sapiens, UniProt P06401); test: Steroid hormone specificity, PR/MMTV-Luc in PC-3 cells; format: cell-based; settings: PC-3, PR/MMTV-Luc, ADEK at 0.01 mM, 0.1 mM and 1.0 mM, 24 h
T2 construct: expressed in transfected cells; host or cells: PC-3
T2 sequence (P06401 1-933): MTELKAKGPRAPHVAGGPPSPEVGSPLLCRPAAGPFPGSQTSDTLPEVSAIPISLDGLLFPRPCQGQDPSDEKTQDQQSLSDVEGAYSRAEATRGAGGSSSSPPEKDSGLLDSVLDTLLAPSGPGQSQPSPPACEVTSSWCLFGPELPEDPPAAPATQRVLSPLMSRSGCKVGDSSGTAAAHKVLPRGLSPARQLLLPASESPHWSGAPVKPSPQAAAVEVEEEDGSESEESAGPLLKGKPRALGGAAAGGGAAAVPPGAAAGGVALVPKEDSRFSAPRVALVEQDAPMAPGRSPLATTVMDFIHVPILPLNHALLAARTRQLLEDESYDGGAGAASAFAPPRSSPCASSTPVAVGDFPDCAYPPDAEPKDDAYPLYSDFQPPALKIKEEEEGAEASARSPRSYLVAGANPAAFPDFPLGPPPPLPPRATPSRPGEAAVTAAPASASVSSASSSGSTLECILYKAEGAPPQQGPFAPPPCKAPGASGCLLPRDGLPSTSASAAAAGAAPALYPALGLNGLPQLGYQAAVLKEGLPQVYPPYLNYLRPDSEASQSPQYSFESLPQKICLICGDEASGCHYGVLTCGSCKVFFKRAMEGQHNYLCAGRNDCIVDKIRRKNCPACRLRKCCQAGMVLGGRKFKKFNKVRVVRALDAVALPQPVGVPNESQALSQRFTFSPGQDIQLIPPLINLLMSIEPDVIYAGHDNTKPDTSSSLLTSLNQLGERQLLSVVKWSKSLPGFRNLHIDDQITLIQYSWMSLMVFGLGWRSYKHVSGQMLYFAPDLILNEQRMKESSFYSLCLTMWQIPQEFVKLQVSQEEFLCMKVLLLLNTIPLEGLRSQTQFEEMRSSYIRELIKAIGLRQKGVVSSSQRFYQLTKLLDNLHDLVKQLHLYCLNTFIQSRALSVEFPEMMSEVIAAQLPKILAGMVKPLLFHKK
Description: Cell Culture, Transfection, and Reporter Gene Assay. The human prostate cancer cell lines, LNCaP, PC-3, and DU145, and non-prostate cancer cell line COS-1 were maintained in RPMI or Dulbecco's modified Eagle's medium (DMEM) (Life Technologies) supplemented with 10% fetal bovine serum (FBS). Transfections and luciferase (Luc) assays were performed as previously described (Miyamoto, H., Yeh, S., Wilding, G. & Chang, C. (1998) Proc. Natl. Acad. Sci. USA 95, 7379-7384; Miyamoto, H., Rahman, M., Takatera, H., Kang, H.-Y., Yeh, S., Chang, H.-C., Nishimura, K., Fujimoto, N. & Chang, C. (2002) J. Biol. Chem. 277, 4609-4617). Briefly, cells seeded to reach a density of 50-60% confluence in 12 well tissue culture plates were transfected with 1.5 μg of DNA according to “SuperFect transfection” instructions (Qiagen). […] The Luc activity was determined using a Dual-Luciferase Reporter Assay System (Promega) and luminometer.
Steroid Hormone Specificity of ADEK. To characterize the steroid hormone activity of ADEK, PC-3 cells were transfected with steroid receptor/reporter (progesterone receptor (PR)/MMTV-Luc, glucocorticoid receptor (GR)/MMTV-Luc, or estrogen receptor (ER)/ERE-Luc) and analyzed for expression of the Luc reporter gene. […] The Luc activity was measured relative to that of ETOH treatment (set as 1-fold). […]

## CC(=O)O[C@H]1C=C[C@@]2(C)C(=CC[C@@H]3[C@@H]2CC[C@@]2(C)[C@H]3CCC23OCCO3)C1 [ADEK, 3β-acetoxy-17,17-ethylenedioxyandrosta-1,5-diene]
LNCaP cells; 1 nM DHT, 1 μM compound in presence of DHT
  effect on LNCaP cell growth, DHT alone or compound with DHT (in words): antagonized this DHT effect
LNCaP cells; 1 μM compound, no DHT
  effect on LNCaP cell growth in the absence of androgen (in words): marginally increased growth
AR
  RBA in LNCaP: 11.1
[1]
  progesterone activity (in words): no significant
